Data reported in patent US20090275514A1, “USE OF CALMODULIN KINASE II INHIBITORS TO TREAT OR PREVENT HEART MUSCLE INFLAMMATION” (priority 2008, published 2009).

Assays:
[1] = test system: Cfb expression in neonatal cardiomyocytes; assay: TNFα-induced Cfb expression in cultured neonatal cardiomyocytes (qRT-PCR); assay type: cell-based, mouse; settings: RNA after 12 h
Method: (§1) All animal experiments were done in compliance with the “Guiding Principles for the Care and Use of Laboratory Animals.” Mouse neonatal cardiac myocytes were isolated from 1 to 3-day-old newborn B6D2/F1 mice according to an established protocol. Hearts were dissected and incubated with F-10 nutrient medium, containing 140 μg/ml of collagenase type-2 (Sigma) and 440 μg/ml pancreatin (Sigma) until cells were dissociated. The cells were then washed, resuspended in 1:1 mix of Dulbecco's minimal Eagle's medium (DMEM) and F10 nutrient mix with 5% each of equine and bovine calf serum. These cells were pre-plated in tissue culture dishes for 1 h to allow for attachment of nonmyocytes. The resulting non-adherent myocytes were plated on fibronectin-coated (Sigma) tissue culture dishes. […]
(§2) Total RNA was isolated from mouse heart, liver, isolated adult cardiomyocytes, or cultured neonatal cardiomyocytes using Qiagen RNA isolation kit. RNA samples were quantified by determining A260 in capillary cuvettes (Gene Machine, Pharmacia). […]
(§3) For SYBR Green quantitative real-time PCR, 1 μl of reverse transcription reaction was mixed with 10 pmoles each specific primer and 12.5 μl SYBR PCR Master Mix (BioRad). […] The threshold cycle (CT) was determined by the icycler software, and quantification of relative mRNA levels was performed by ΔΔCT method.

[2] = test system: Cfb expression in neonatal cardiomyocytes; assay: LPS-induced Cfb expression in cultured neonatal cardiomyocytes (qRT-PCR); assay type: cell-based, mouse
Method: as §1, §2, §3

[3] = test system: CFB protein in infarcted hearts; assay: CFB protein in hearts after myocardial infarction (immunoblotting); assay type: in vivo, mouse; settings: one week following MI; transgenic hearts compared to WT
Method: (§4) Mouse hearts were infarcted by opening the thoracic cavity and placing a ligature on the left descending coronary artery, as described (3). Both male and female mice were infracted, and three-week post-infarction, RNA was isolated from cardiac tissue using RNeasy kit (Qiagen). Hearts were harvested one week after MI surgery for protein studies. Gene expression profiles of pooled RNA from at least five hearts of each gender were determined from cDNA microarrays containing 8600 elements derived from clones isolated from normalized cDNA libraries or purchased from ResGen (Invitrogen) as described previously (52). Differential expression values were calculated as the ratio of the median of background-subtracted fluorescent intensity of the experimental RNA to the median of background-subtracted fluorescent intensity of the control RNA. […] For the analyses, the results from both genders were compiled.
Tissue samples were homogenized in modified RIPA buffer (50 mM Hepes, pH 7.5; 150 mM NaCl; 5 mM EDTA; 1% v/v NP-40 and 0.5% w/v deoxycholate) containing mixture of protease and phosphatase inhibitors. […] Protein bands were detected using ECL reagent (Lumi-Light, Roche), and loading was routinely monitored by Coomassie staining of the blots after antibody probing. For quantification, QuantityOne software (BioRad) was used.

[4] = test system: gene expression in infarcted hearts; assay: cDNA microarray of infarcted hearts (CaMKII-regulated genes); assay type: in vivo, mouse; settings: three weeks after MI; compared to infarcted AC3-C hearts; 8,600 genes on array
Method: as §4

[5] = neonatal cardiomyocytes from transgenic mice, compared to WT cells

Compound	induction of Cfb expression by TNFα ([1]; neonatal cardiomyocytes, TNFα (100 pg/ml) with water-soluble KN-93 (2.5 μM))	induction of Cfb mRNA by LPS ([2]; WT neonatal cardiomyocytes, water-soluble KN-93 (2.5 μM) added an hour prior to LPS 10 μg/ml, RNA after 12 h)	CFB protein in heart after MI [3]	induction of Cfb by TNFα in cardiomyocytes expressing the peptide [1, 5]	induction of Cfb mRNA by LPS in cardiomyocytes expressing the peptide [2, 5]	number of genes with reduced expression in infarcted hearts [4] [genes]
COc1ccc(S(=O)(=O)N(CCO)c2ccccc2CN(C)CC=Cc2ccc(Cl)cc2)cc1 [KN-93]	significantly blunted	significantly (P<0.001) attenuated induction of Cfb mRNA	–	–	–	–
AC3-I: CaMKII-inhibitory peptide of SEQ ID NO:16, transgenically expressed in cardiomyocytes (KKALHRQEAVDCL)	–	–	Significantly reduced CFB protein	significantly lower	strong attenuation of Cfb induction	88
